According to ChEMBL document CHEMBL1201862, “PubChem BioAssay data set” (2004):
The source made the active and inactive calls.

How the values were obtained:
[1] = Fluorescence-based cell-based high throughput dose response assay for inhibitors of the interaction of nucleotide-binding oligomerization domain containing 2 (NOD2) and the receptor-interacting serine-threonine kinase 2 (RIPK2).; format: functional; conditions: Homo sapiens
[2] = nonselective StAR promoter luciferase inhibitors – cell-based, luminescence, luciferase reporter, counter-screen for LRH-1 inverse agonist project, dose response (AID 651969); format: functional
[3] = molecular target: Nuclear receptor subfamily 5 group A member 2 (Homo sapiens, UniProt O00482); format: functional, cell-based;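 also: HEK293T cells transfected with LRH-1 and a StAR promoter luciferase reporter; potency for inhibitors that lower LRH-1 driven reporter light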
[4] = molecular target: Steroidogenic factor 1 (Homo sapiens, UniProt Q13285); test: Counterscreen for inverse agonists of the liver receptor homolog-1 (LRH-1; NR5A2): Luminescence-based cell-based high throughput dose response assay to identify inverse agonists of the Steroidogenic Factor 1 Nuclear Receptor (SF1; NR5A1).; format: functional
[5] = tested on: Streptococcus; test: GAS UMAA2166 growth inhibition – luminescence, BacTiterGlo, counter-screen for streptokinase expression inhibitor project, dose response (AID 1915); format: functional, organism-based;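 also: potency for reduction of bacterial viability or growth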
[6] = tested on: Streptococcus sp. 'group A'; test: Streptococcus pyogenes SK(-)GAS viability under kanamycin – luminescence, BacTiterGlo, confirmation, counter-screen for streptokinase expression inhibitor project, dose response (AID 1900); format: functional, organism-based
[7] = molecular target: T1, Probable nicotinate-nucleotide adenylyltransferase (Staphylococcus aureus (strain N315), UniProt P65502); format: functional, Staphylococcus aureus subsp. aureus N315;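 as to IC50 Mean: confirmatory dose-response retesting of NadD inhibitor hits first found in an ultra-high-throughput screen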
[8] = molecular target: T1, Probable nicotinate-nucleotide adenylyltransferase; format: functional, Staphylococcus aureus subsp. aureus N315; conditions: read-out: IC50_Mean
[9] = molecular target: T2, Streptokinase A (Streptococcus pyogenes serotype M1, UniProt P10520); test: viability-normalized secreted streptokinase activity reduction – plasminogen activation absorbance, OD405, dose response (AID 1914); format: functional, Streptococcus pyogenes M1 GAS;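 also: secreted streptokinase activity via plasminogen activation per viability signal from cell pellet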
T2 sequence (P10520 whole entry): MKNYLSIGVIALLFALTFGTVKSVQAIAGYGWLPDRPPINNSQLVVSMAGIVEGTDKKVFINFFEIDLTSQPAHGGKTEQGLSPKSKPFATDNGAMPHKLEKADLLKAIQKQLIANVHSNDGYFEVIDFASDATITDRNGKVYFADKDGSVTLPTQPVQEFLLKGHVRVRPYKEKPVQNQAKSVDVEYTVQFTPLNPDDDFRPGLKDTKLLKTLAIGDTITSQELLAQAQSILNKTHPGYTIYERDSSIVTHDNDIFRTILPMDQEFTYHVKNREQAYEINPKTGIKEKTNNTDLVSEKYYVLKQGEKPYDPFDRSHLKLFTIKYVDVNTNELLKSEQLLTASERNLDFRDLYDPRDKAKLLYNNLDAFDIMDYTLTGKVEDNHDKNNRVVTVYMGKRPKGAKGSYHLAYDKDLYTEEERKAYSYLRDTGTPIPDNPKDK

[10] = molecular target: T3, Adenosylmethionine-8-amino-7-oxononanoate aminotransferase (Mycobacterium tuberculosis, UniProt P9WQ81); test: Mycobacterium tuberculosis BioA enzyme inhibitor Measured in Biochemical System Using Plate Reader - 2163-02_Inhibitor_Dose_CherryPick_Activity.; format: functional, Mycobacterium tuberculosis UT205
T3 sequence (P9WQ81 whole entry): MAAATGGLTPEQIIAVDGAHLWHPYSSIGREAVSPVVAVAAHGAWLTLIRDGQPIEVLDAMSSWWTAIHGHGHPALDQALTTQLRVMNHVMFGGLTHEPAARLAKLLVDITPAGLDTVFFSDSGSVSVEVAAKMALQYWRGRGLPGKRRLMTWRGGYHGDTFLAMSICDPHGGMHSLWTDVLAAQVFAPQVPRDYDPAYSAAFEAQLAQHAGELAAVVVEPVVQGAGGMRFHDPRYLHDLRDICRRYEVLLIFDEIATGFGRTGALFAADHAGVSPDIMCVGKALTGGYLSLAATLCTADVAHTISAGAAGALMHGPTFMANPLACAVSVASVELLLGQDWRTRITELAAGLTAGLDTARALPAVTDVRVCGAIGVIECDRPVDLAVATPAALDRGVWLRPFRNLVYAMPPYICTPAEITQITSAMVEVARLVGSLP

[11] = molecular target: T4, Carboxy-terminal domain RNA polymerase II polypeptide A small phosphatase 1 (Homo sapiens, UniProt Q9GZU7); test: CTDSP1 inhibitors, concentration-response, biochemical, absorbance readout, ultra-high-throughput screen actives (AID 540297); format: functional
T4 sequence (Q9GZU7 whole entry): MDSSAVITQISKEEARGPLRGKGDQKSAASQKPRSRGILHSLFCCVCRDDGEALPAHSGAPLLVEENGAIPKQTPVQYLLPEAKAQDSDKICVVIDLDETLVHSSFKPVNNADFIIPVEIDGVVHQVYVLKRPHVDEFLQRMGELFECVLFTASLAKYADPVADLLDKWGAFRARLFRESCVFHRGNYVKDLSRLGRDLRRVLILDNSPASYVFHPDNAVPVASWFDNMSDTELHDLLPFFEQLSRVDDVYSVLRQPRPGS

[12] = Luminescence Cell-Based Dose Retest to Confirm Inhibitors of Cancer Stem Cells. [Related pubchem assays (depositor defined):AID2717, AID2721]; format: functional; conditions: Homo sapiens
[13] = molecular target: Photoreceptor-specific nuclear receptor (Homo sapiens, UniProt Q9Y5X4); format: functional, cell-based;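 also: CHO-S cells with Gal4-NCOR and VP16-NR2E3 two-hybrid luciferase reporter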
[14] = intracellular Trypanosoma cruzi inhibitors in host cells – cell-based, plate reader, cherry-pick samples, set 3, dose response (AID 651818); format: functional;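 also: compounds incubated with infected cells for about four days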
[15] = viability of uninfected HEp-2 cells – cell-based, HTS, cytotoxicity control for RSV inhibitor project, dose response (AID 2410); format: functional; conditions: human respiratory syncytial virus
[16] = cells
[17] = Luminescence Cell-Based Dose Confirmation HTS to Identify Inhibitors of Platelet Dense Granule Release. [Related pubchem assays: 1663 (Primary HTS), 1678 (Summary of Project)]; format: functional
[18] = molecular target: Luciferin 4-monooxygenase (Photinus pyralis, UniProt P08659); test: inhibition of purified Photinus pyralis luciferase – biochemical, luminescence, dose response (AID 1891)
[19] = molecular target: Cytochrome P450 2C19 (Homo sapiens, UniProt P33261); test: Cytochrome panel assay with activity outcomes. Panel member name: p450-cyp2c19 Compounds with AC50 equal or less than 10 uM are considered active; format: functional; conditions: read-out: AC50
[20] = molecular target: Ras and Rab interactor 1/Tyrosine-protein kinase ABL1 (Homo sapiens, UniProt P00519+Q13671); format: functional;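 also: biochemical TR-FRET dose-response test measuring inhibition of binding between Rin1 and Abl proteins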
[21] = molecular target: T5, Cytochrome P450 1A2 (Homo sapiens, UniProt P05177);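 also: PubChem cytochrome P450 panel assay, CYP1A2 panel member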
T5 sequence (P05177 whole entry): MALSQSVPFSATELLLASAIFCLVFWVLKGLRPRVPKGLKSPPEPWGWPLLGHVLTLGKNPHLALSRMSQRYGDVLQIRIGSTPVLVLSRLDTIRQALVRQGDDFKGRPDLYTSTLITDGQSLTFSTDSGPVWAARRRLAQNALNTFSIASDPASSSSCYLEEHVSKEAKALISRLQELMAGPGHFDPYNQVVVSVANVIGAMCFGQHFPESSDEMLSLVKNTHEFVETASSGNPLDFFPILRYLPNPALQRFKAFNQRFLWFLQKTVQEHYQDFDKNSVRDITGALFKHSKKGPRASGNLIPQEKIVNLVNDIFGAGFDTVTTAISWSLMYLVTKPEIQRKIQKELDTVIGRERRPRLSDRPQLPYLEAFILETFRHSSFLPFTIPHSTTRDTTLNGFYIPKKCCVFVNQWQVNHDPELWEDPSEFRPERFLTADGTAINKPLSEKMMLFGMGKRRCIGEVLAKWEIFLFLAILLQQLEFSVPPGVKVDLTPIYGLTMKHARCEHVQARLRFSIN

[22] = molecular target: Cytochrome P450 3A4 (Homo sapiens, UniProt P08684);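 also: CYP3A4 tested as one member of a cytochrome P450 panel screen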
[23] = A549 cell cytotoxicity, dose response, cytotoxicity control, plate reader, cherry-pick, antagonist series (AID 743412); format: functional, cell-based
[24] = toxicity toward HepG2 liver cells – cell-based, plate reader, cherry-pick, antagonist series, cytotoxicity control, dose response (AID 743416); format: functional
[25] = blockers of bursicon-stimulated LGR2 cAMP reporter – cell-based, HEK293, CRE-luciferase reporter, cherry pick, set 2, dose response (AID 743343); format: functional;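 also: transfected cells were stimulated with diluted bursicon conditioned medium after compound addition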
[26] = viability loss in HEK293 cells – cell-based, plate reader, cherry-picked samples, cytotoxicity control, dose response (AID 743446); format: functional
[27] = molecular target: T6, Microphthalmia-associated transcription factor (Homo sapiens, UniProt O75030); test: reducers of TRPM1 reporter luminescence, concentration series – cell-based, SK-MEL-5, cherry-picked, set 3, MITF inhibitor project, dose response (AID 493073); format: functional;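 also: SK-MEL-5 melanoma cells with luciferase driven by the MITF target TRPM1 promoter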
T6 sequence (O75030 whole entry): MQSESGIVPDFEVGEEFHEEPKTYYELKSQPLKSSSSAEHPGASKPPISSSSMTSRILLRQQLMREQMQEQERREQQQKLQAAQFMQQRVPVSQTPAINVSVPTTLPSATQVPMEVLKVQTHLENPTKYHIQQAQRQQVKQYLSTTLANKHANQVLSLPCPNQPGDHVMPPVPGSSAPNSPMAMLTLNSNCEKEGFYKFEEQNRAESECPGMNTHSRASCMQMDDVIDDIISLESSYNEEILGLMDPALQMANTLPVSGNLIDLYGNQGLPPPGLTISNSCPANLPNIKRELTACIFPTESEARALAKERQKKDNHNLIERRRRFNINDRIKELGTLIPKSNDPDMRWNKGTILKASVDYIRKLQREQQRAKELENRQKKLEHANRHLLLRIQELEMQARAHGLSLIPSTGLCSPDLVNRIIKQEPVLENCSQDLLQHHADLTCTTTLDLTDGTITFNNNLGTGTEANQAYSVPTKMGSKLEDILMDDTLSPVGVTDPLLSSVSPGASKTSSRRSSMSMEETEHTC

[28] = blockade of melanocortin 4 receptor signaling – cell-based, plate reader, cherry pick, counter-screen for LGR2 antagonist project, dose response (AID 743444); format: functional;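 also: transfected HEK 293 cells stimulated with alpha-MSH peptide; potency of inhibitors of the alpha-MSH evoked signal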
[29] = viability of PTEN-deleted HCT116 cells – cell-based, HCT116 PTEN knockout, dose response (AID 1047); format: functional;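 also: HCT116 colon tumor cells with PTEN knocked out; cells exposed to compound for 60 hours before readout; potency for loss of cell viability measured by luminescence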
[30] = viability of HCT116 lacking mutant beta-catenin – cell-based, human colon tumor, dose response (AID 1045); format: functional;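 also: HCT116 colon tumor cells with beta catenin knocked out; cells exposed to compound for 60 hours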
[31] = tested on: INS1; test: INS-1E survival protection against cytokine death – cell-based, luminescence, retest, dose response (AID 449756); format: functional; conditions: Rattus norvegicus;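 also: cell death triggered by IL-1 beta plus TNF-alpha plus IFN-gamma mixture; protective hits raise ATP signal compared with cytokine alone wells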
[32] = molecular target: Glucose-6-phosphate 1-dehydrogenase (Homo sapiens, UniProt P11413); test: inhibition of Homo sapiens G6PD, dose series – biochemical, fluorescence, selectivity assay for P. falciparum G6PD inhibitor project, dose response (AID 504792); format: functional
Sequence of Glucose-6-phosphate 1-dehydrogenase (P11413 whole entry): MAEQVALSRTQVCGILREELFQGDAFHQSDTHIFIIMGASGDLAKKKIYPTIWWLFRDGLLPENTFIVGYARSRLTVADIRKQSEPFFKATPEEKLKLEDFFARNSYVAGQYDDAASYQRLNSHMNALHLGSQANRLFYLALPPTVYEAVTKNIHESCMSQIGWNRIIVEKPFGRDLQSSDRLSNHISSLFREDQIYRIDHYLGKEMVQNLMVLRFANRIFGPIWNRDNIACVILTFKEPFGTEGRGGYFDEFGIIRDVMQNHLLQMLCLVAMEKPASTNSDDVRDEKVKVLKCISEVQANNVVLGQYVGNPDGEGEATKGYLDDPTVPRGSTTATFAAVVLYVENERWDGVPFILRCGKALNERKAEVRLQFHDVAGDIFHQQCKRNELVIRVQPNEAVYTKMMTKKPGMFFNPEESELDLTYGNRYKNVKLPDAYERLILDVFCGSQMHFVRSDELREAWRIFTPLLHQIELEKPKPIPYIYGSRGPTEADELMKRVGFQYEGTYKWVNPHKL

Sequence of Nuclear receptor subfamily 5 group A member 2 (O00482 whole entry): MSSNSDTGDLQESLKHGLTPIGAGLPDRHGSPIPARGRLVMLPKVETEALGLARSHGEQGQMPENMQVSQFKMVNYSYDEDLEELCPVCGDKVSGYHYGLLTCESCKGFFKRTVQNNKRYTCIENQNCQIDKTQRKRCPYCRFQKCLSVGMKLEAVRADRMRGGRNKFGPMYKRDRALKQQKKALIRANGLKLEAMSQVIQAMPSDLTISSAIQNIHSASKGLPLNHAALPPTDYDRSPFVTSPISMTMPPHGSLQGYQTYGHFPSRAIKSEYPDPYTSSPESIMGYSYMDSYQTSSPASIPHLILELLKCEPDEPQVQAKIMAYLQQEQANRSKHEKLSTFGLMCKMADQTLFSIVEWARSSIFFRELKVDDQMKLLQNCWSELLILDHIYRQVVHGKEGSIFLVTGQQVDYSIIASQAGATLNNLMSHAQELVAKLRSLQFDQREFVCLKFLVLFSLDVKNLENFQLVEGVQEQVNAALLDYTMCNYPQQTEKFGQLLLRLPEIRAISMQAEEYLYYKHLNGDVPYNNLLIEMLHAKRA
Sequence of Steroidogenic factor 1 (Q13285 whole entry): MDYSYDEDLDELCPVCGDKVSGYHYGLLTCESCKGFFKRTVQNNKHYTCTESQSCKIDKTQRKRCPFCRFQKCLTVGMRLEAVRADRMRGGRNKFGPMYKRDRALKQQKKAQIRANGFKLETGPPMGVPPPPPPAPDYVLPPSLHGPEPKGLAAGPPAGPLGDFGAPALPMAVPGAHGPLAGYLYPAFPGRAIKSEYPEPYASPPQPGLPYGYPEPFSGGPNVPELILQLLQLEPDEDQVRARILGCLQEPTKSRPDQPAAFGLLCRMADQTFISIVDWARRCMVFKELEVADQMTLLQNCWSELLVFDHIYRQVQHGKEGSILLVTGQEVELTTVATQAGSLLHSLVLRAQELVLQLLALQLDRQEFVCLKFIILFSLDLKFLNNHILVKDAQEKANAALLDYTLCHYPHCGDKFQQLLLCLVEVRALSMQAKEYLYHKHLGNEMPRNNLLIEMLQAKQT
T1 sequence (P65502 whole entry): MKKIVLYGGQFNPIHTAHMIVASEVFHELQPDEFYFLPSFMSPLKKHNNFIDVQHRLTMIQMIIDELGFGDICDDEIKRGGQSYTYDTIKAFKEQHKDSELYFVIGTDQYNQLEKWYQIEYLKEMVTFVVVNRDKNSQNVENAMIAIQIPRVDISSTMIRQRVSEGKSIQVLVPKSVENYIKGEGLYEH
Sequence of Cytochrome P450 3A4 (P08684 whole entry): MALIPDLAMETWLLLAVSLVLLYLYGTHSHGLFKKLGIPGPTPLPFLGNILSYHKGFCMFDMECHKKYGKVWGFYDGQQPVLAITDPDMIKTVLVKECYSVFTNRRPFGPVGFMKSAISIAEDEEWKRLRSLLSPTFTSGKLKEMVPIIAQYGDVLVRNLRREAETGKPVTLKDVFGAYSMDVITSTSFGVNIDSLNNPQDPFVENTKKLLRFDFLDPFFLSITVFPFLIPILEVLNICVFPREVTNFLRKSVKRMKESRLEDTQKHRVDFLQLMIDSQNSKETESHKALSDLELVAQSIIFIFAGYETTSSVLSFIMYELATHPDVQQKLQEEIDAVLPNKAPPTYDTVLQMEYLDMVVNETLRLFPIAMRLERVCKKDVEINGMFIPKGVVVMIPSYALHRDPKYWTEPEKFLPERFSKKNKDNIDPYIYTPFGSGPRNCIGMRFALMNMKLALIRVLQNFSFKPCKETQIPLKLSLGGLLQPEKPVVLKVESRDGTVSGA
Sequence of Luciferin 4-monooxygenase (P08659 whole entry): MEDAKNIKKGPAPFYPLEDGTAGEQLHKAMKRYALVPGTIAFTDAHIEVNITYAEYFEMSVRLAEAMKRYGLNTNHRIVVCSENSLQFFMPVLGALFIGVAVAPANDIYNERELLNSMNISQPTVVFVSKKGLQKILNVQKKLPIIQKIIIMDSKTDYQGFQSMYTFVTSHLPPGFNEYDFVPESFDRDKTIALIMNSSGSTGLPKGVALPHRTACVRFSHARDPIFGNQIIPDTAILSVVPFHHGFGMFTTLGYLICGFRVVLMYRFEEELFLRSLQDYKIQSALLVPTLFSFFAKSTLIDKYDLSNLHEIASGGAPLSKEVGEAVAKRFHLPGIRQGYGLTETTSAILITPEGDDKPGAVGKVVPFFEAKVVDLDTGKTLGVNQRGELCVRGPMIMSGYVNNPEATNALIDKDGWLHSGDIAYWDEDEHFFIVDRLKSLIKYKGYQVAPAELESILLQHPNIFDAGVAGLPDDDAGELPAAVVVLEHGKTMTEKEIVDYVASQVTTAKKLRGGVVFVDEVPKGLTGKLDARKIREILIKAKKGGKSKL
Sequence of Ras and Rab interactor 1/Tyrosine-protein kinase ABL1 (P00519 whole entry): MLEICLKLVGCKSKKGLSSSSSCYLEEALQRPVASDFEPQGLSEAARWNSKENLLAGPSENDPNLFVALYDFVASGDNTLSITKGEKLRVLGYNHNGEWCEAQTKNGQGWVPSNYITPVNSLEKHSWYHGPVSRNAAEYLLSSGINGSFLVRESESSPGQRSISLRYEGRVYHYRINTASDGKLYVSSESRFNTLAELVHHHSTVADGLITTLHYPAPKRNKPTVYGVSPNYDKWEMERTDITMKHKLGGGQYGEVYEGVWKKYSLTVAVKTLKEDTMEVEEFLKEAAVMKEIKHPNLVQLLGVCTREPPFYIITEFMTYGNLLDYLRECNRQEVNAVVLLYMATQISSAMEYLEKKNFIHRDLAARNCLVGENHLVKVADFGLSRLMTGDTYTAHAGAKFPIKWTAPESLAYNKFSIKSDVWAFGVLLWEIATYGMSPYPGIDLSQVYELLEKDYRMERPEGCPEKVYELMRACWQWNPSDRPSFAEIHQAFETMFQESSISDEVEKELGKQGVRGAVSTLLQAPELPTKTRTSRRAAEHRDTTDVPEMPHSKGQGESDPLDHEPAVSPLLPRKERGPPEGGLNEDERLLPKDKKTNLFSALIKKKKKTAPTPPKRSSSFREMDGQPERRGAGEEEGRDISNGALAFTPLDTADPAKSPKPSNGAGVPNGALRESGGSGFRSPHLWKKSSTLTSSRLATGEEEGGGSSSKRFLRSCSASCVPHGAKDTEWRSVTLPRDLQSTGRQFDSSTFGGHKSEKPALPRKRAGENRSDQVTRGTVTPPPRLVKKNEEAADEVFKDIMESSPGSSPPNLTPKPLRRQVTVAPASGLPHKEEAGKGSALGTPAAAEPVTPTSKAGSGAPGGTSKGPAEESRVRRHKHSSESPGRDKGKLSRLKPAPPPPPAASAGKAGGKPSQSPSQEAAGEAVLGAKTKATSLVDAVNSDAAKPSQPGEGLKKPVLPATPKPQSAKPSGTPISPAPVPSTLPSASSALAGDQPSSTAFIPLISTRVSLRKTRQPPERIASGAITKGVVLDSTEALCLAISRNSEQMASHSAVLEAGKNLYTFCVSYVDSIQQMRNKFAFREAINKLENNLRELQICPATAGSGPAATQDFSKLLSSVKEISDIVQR
Sequence of Ras and Rab interactor 1/Tyrosine-protein kinase ABL1 (Q13671 whole entry): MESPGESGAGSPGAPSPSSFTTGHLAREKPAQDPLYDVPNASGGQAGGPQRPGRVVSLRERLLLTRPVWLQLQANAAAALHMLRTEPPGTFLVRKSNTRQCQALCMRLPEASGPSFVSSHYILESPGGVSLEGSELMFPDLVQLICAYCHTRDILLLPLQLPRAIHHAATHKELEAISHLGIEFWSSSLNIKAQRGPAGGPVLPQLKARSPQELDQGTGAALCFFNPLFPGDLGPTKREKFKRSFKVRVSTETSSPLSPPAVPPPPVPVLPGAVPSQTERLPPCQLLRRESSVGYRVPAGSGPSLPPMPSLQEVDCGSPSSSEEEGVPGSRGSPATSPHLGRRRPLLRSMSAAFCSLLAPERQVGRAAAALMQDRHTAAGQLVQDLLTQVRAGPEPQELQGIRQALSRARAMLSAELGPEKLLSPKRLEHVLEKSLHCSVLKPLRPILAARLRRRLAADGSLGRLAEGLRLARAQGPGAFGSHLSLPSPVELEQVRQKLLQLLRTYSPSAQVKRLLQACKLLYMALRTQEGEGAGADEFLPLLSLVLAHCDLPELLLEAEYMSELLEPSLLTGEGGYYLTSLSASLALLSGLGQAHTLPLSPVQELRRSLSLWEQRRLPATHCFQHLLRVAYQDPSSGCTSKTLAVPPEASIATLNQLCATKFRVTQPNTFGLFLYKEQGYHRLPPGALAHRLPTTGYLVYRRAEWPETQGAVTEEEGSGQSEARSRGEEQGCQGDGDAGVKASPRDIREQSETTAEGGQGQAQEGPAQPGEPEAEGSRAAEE

CCOC(=O)c1c(SCCN2CCCC2)n(-c2ccccc2)c(=S)n(-c2ccccc2)c1=O
IC50 [1]: 1.09 µM (active)

COC(=O)c1ccc(NC(=O)COc2cccc(-n3cnnn3)c2)cc1
IC50 [2]: 35.9 µM (inactive)
IC50 [3]: 35.9 µM (inactive)
IC50 [4]: 35.9 µM (inactive)

Cc1nn(-c2ccc(Cl)cc2)c(Cl)c1/C=N/NC(=O)c1ccc(NS(=O)(=O)c2cccs2)cc1
EC50 [5]: 5.2 µM (active)
EC50 [6]: 1.53 µM (active)
IC50 [7]: 7.71 µM (active)
IC50 [8]: 27.4 µM (active)
EC50 [9]: > 150 µM (not active)

O=C(NC1CCCc2c1cnn2-c1cc(F)cc(F)c1)c1ccc[n+]([O-])c1 (configuration not stated)
AC50 [10]: 4.29 µM (active)

COc1cc(OC)cc(-c2oc3cccnc3c2C#CCCO)c1
IC50 [2]: 27.3 µM (inactive)
IC50 [3]: 1.87 µM (active)
IC50 [4]: 0.443 µM (active)

CCCN(CC(=O)Nc1ccccc1C)CC(=O)Nc1ccc(Br)cc1F
IC50 [2]: 35.1 µM (inactive)
IC50 [3]: 10.6 µM (inactive)
IC50 [4]: 1.33 µM (active)

Cc1noc(C)c1NC(=O)N(C)C[C@@H]1Oc2c(NC(=O)c3ccncc3)cccc2C(=O)N([C@H](C)CO)C[C@@H]1C
IC50 [7]: 27.3 µM (active)
IC50 [8]: 38.7 µM (active)
IC50 [11]: 7.66 µM (active)

N#Cc1c(-c2ccccc2)cc(-c2ccccc2)nc1SCCC(=O)O
AC50 [12]: 1.6 µM (active)
IC50 [13]: 12.7 µM (inactive)

C[C@@H]1CN([C@@H](C)CO)C(=O)c2cccc(NC(=O)CCCCCC(=O)Nc3ccccc3N)c2O[C@H]1CN(C)CC1CCCCC1
AC50 [14]: 3.58 µM (active)

O=S(=O)(c1cccc(Cl)c1)N1CCCC(c2nc(O)c3nnn(Cc4ccc5c(c4)OCCO5)c3n2)C1 (configuration not stated)
IC50 [7]: 9.91 µM (active)
IC50 [8]: 30.5 µM (active)
CC50 [15]: 11.3 µM (active)
IC50 [16]: 10.3 µM (active)

CCOC(=O)N1CCC(NC(=O)CCc2nc(C3=CCN(C)CC3)no2)CC1
EC50 [17]: > 112 µM (not active)
EC50 [18]: > 112 µM (not active)
AC50 [19]: 11.2 µM (inconclusive)
IC50 [20]: 5.11 µM (active)
AC50 [21]: 1 µM (inconclusive)
AC50 [22]: 25.1 µM (inconclusive)

COC(=O)C1CCN(C(c2ccc(OC)c(OC)c2)c2sc3nc(C)nn3c2O)CC1 (configuration not stated)
AC50 [10]: 17.4 µM (active)

Cc1cc(Br)ccc1NC(=O)CNC(=O)Cn1ncc(Cl)c(Cl)c1=O
IC50 [1]: 1.84 µM (active)
AC50 [23]: 3.92 µM (active)
AC50 [24]: > 52 µM (inactive)
AC50 [25]: 4.51 µM (active)
AC50 [26]: 4.54 µM (active)
AC50 [27]: 7.47 µM (active)
AC50 [28]: 5.41 µM (active)

C[C@H](CO)N1C[C@H](C)[C@H](CN(C)Cc2ccc(C(=O)Nc3ccccc3N)cc2)Oc2ccc(NS(=O)(=O)c3ccc(Cl)cc3)cc2CC1=O
AC50 [14]: 1.91 µM (active)

C[C@@H]1CN([C@H](C)CO)C(=O)Cc2cc(NS(=O)(=O)c3ccc(Cl)cc3)ccc2O[C@@H]1CN(C)S(=O)(=O)c1ccc(F)cc1
AC50 [14]: 7.57 µM (active)

CCC(CO)N1C(C)=CC(=Cc2sc3ccccc3[n+]2Cc2ccccc2)C=C1C (configuration not stated)
AC50 [10]: 2.73 µM (active)
EC50 [29]: 1.19 µM (active)
EC50 [30]: 0.775 µM (active)
AC50 [31]: 0.613 µM (active)
IC50 [32]: > 80 µM (inactive)
